Where two headings read alike, the source gives them in different places.

For data set [1] the following is noted: human iv FA, values from project 1 report; cited from earlier work.
Data set [2] deals with Human red blood cells (RBC). The data set is described as follows: In vitro haemolysis. Type of data set: cell-based. Particulars: 5 mg/mL, 37° C., 60 min.
Procedure: For example suspended RBCs isolated from whole human blood may be mixed with non-formulated cargo molecules or test formulations comprising the cargo molecule at a given final concentration with respect to the cargo molecule incubated at 37° C. for 60 minutes, and centrifuged to remove intact RBCs. […] Human red blood cells (RBC) were isolated by centrifugation from whole blood collected in vaccutainer containing EDTA. […] Freeze-dried formulations were reconstituted in water and then diluted to the desired concentrations with PBS.
For data set [3] the following is noted: FLU solution, rats, IV […], NCA, cited from earlier work.
Data set [4] is described as follows: Literature IV PK of FLU solution in rats (Park and Kim; Knihinicki et al). Type of data set: in vivo. Particulars: Park and Kim data fitted to 2 compartmental model. From the text: The fitted results obtained in the JRF study were then compared to those in the literature, generated after administering a non-micellar low concentration simple FLU solution IV to rats. This was undertaken to determine potential differences in FLU pharmacokinetics induced by the micellar formulation.
The results from the JRF study were then compared to literature values for FLU PK administered as an IV solution as generated by Park and Kim (1) and Knihinicki et al (2); the comparison is shown in Table 39.
For comparative purposes, the rat PK data for a FLU solution generated by Park and Kim (1) were also fitted to the 2 compartmental model (FIG. 22 and Table 41).

Data set [5] is described as follows: Extrapolation to human IV 2 compartmental PK parameters. Particulars: estimated human iv, PPI 1501 by rat difference ratio, solution from literature oral PK. From the text: Both sets of rodent data were then extrapolated using published human FLU PK parameters to estimate the PK of FLU post IV administration of PPI 1501 or non-formulated FLU to humans.
Assuming the plasma PK profile of FLU mediated by IV PPI 1501 in the rat is translatable to human, i.e. that the same PK parameter difference ratios for FLU in PPI 1501 observed in the rat apply in humans, then the human IV PK parameters for FLU in PPI 1501 can be estimated. This may be achieved by simple multiplication of the difference ratios provided in Table 41 (last column) to again obtain the comparative human PK parameter values FLU in PPI 1501 versus those obtained from injection of the simple solution; such data may also be compared to data obtained by injecting humans with the prodrug FA (Table 42).
The human IV PK parameters of FLU in solution were estimated based on the oral PK parameters of FLU and its estimated oral bioavailability (project 1 report, Duan, 2015, Table 42, ref 3-8).

In the case of flurbiprofen axetil [FA], in data set [1], the CL is 1.14 L/h, the CL2 is 4.40 L/h, the Ka was 58 h⁻¹ and the “MRT (est. based on 2 compartment model)” value is given as 7.36 h. Further, in data set [1], the V was 5.11 L and the V2 is reported as 3.28 L.
With `CC(C(=O)O)c1ccc(-c2ccccc2)c(F)c1` (stereo not drawn) [FLU, flurbiprofen], the “absorbance at 540 nm” value in data set [2] stood at 0.54±0.03. In data set [2] (triplicate ± standard deviation), this compound had a percent haemolysis of 92.1±17.2%. In addition, in data set [3] (Knihinicki et al), the Vss (usually a proportionality between amount in the body and measured concentration, not a real space) is 220 mL/kg; the Vz (commonly the apparent volume that relates the amount in the body to the concentration in plasma or blood) is 239 mL/kg; the t1/2 was 3.07 h. Further, in data set [3] (Park & Kim), the Vss is 156.78 mL/kg, the Vz is 192.31 mL/kg and the t1/2 is on record as 2.78 h. In data set [4] (IV […]), this compound yielded a t1/2Alpha of 5.4 min and a t1/2Beta of 2.73 h. Besides, in data set [4] (rat, plasma, IV 2.5 mg/kg), the AUC(0-inf) (in general, the area under the concentration-time curve extrapolated to infinity) came out at 51400 ng·h/mL; the AUC(0-t) (usually the area under the concentration-time curve up to a stated or last time point) is 45300 ng·h/mL; the C0 turned out to be 49800 ng/mL; the MRT (commonly the average time that molecules of a dose stay in the body) amounted to 3.57 h. In addition, the clearance (as a rule, the rate of elimination divided by the concentration) in data set [4] (rat, plasma, IV 2.5 mg/kg) was 0.81 mL/min/kg. In addition, the Vd in data set [4] (rat, plasma, IV 2.5 mg/kg, read-out: Vss) worked out at 0.174 L/kg. Moreover, in data set [5], the CL is recorded as 0.967 L/h, the CL2 is reported as 0.343 L/h, the “MRT (est. based on 2 compartment model)” value is listed as 7.43 h and the V is on record as 4.984 L. In data set [5], the V2 is reported as 2.199 L.

The values above are taken from US12186398B2, “Non-ionic PVP-PLA block copolymers and liquid pharmaceutical compositions derived therefrom” (ALTUS FORMULATION INC., priority 2017, dated 2025).
